Source: patent publication US5521315A, “Olefin substituted long chain compounds” (priority 1993, dated 1996)
“And” between values parts separate entries of the source, which are not always exact repeats. Identical values can stand only once. “Also recorded” adds a separate entry of the source. Like-named read-outs stand apart in the source and are kept apart here.

Columns and labels:
mast cell degranulation = experiment: Serotonin release assay (inhibition of mast cell degranulation); format: cell-based; design: INCORP / TOTAL: unit not given here; conditions: 50 μM; for RELEASE-SPONT: average corrected for spontaneous release; for AVERAGE % RELEASE: average of duplicates; for inhibition at 50 µM: Mast cell
Description: A serotonin release assay is utilized to study the utility of the inventive compounds for treatment of asthma and allergy. […] This assay measures mast cell degranulation, which is an early phase reaction to allergen challenge. Mast cells grown in tissue culture are first loaded with ^3 H serotonin, which is incorporated into the granules in the cells. The mast cells are sensitized with antigen specific monoclonal IgE, and then triggered to degranulate with the specific antigen (dinitorphenolbound to BSA (DNP)). When the cells degranulate, ^3 H Serotonin is released into the medium, and can be measured directly. The ability of the inventive compounds to inhibit the degranulation response is determined by the decrease in ^3 H Serotonin released in the presence of drug and is represented as % INHIBITION.
Specifically, the serotonin release assay seeds 2×10^5 cells in 0.5 ml medium in duplicate for spontaneous release, IgE+DNP, IgE+DNP+EtOH (vehicle control), and inventive compounds. […] The cells are incubated for 18 hours at 37° C. in 5% CO2, washed twice with 0.5 ml Isotonic Buffer (25 mM disodium PIPES pH 7.1,100 mM NaCl, 5 mM KCl, 5 mM glucose, 0.4 mM MgCl2, 1mM CaCl2, 0.1% BSA), and sterile filtered. 250 μl Isotonic Buffer is added per well and the plates are equilibrated in an incubator for about 10 min. Drug is added and cells are activated with 40 ng/ml DNP-BSA (1 mg/ml Diluted 1:200 in Isotonic Buffer) for 45 minutes using 2 μl/250 μl. Spontaneous release is determined in incubated cells with 250 μl Isotonic Buffer for 45 minutes and the reaction is stopped by removing supernatant and centrifuging at ~4000 rpm in microfuge for 15 seconds to remove any detached cells. Released radiolableled serotonin is counted. To determine amount of ^3 H-serotonin incorporated into the cells, (a) remove Isotonic Buffer and lyse cells by adding 250 μl 1% Triton-X100 in PBS, (b) add to 5 ml scintillation fluid, (c) wash 2× with Triton/PBS, and (d) add washes to scintillation tube. Percent serotonin release is calculated by dividing the amount of released serotonin by the sum of incorporated plus released serotonin and correcting for spontaneous released serotonin. Compound inhibition is calculated by dividing the percent serotonin release in the presence of a compound by the percent serotonin release in the absence of the compound.
This assay is described above and provides an in vitro model for an allergy and asthma therapeutic product.

[1] = tested on: PBMC in mixed lymphocyte assay culture; experiment: Percent viable cells in mixed lymphocyte assay culture after six days; format: cell-based, human; conditions: for cytotoxicity in mixed lymphocyte assay culture: 100 μM, six days of culture
[2] = tested on: CMV promoter activity in transformed (adenovirus) cells; experiment: CMV promoter assay (gene transcription and translation; cytotoxicity in transformed cells); format: cell-based
Description: (§1) FIG. 18 illustrates data regarding proliferative activity of various inventive compounds for inducting CMV promoter activity. The CMV promoter assay measures gene transcription and translation activity wherein any active compounds will have cytotoxic activity to inhibit cellular protein synthesis machinery in transformed (adenovirus) cells.
as §1, with “This example” for “FIG. 18”

[3] = tested on: PBMC (peripheral blood mononuclear cells); experiment: Two-way mixed lymphocyte reaction (MLR), proliferation of PBMC to allogeneic stimulation; format: cell-based, human; conditions: for mixed lymphocyte reaction activity: FIGS. 1 and 2
Description: Various in vitro assays can be used to measure effects of the inventive compounds to module immune activity and have antitumor activity using a variety of cellular types. For example, a mixed lymphocyte reaction (MLR) provides a valuable screening tool to determine biological activity of each inventive compound. In the MLR, PBMCs (peripheral blood mononuclear cells) are obtained by drawing whole blood from healthy volunteers in a heparinized container and diluted with an equal volume of hanks balanced salt solution (HBSS). This mixture is layered on a […] density gradient, such as a Ficoll-Hypaque® gradient (specific gravity 1.08), and centrifuged at 1000×g for 25 minutes at room temperature or cooler. PBMC are obtained from a band at a plasma-Ficoll interface, separated and washed at least twice in a saline solution, such as HBSS. Contaminating red cells are lysed, such as by ACK lysis for 10 min at 37° C., and the PBMCs are washed twice in HBSS. The pellet of purified PBMCs is resuspended in complete medium, such as RPMI 1640 plus 20% human inactivated serum. Proliferative response of PBMC to allogeneic stimulation is determined in a two-way MLR performed in a 96-well microliter plate. Briefly, approximately 10^5 test purified PBMC cells in […] complete medium are co-cultured with approximately 10^5 autologous (control culture) or allogeneic (stimulated culture) PBMC cells, wherein the allogeneic cells are from HLA disparate individuals. Varying doses of compounds (drug) are added at the time of addition of cells to the microtiter plate. The cultures are incubated for 6 days at 37° C. in a 5% CO2 atmosphere. At the conclusion of the incubation tritiated thymidine is added (for example, […] of 40 to 60 Ci/mmole) and proliferation determined by liquid scintillation counting.
This example illustrates a mixed lymphocyte reaction assay of inventive compounds by showing the IC50 value of each compound in this assay and a dose response of several compounds to illustrate an IC50 determination.

human lymphocytes [4] = experiment: IL-2 induced blastogenesis assay; format: cell-based; conditions: human IL-2, six days; FIG. 12
Experimental: (§2) Briefly, human lymphocytes are obtained from blood from normal volunteers and plated into wells at 2×10^5 cells/well. Human IL-2 ([…] or 5 μl of a 100 U/ml solution) and drug at various concentrations are added to each well. The cells are incubated for six days and then proliferation is determined by a standard tritiated thymidine incorporation procedure. […] However, both CT1406 and CT1442 were active, as is shown by IC50 values in FIG. 12.
as §2, with “This example illustrates the effects of four inventive compounds to inhibit proliferation of human lymphocytes in an IL-2 induced blastogenesis in vitro assay. […] Briefly,” for “Briefly,”, “cells am” for “cells are”

murine thymocyte = experiment: Murine thymocyte stimulated by ConA and IL-2 (T cell immune suppression); format: cell-based; conditions: FIGS. 8 and 9
Experimental: A thymocyte costimulator assay is conducted to evaluate the inventive compounds to inhibit activation and proliferation of thymocytes caused by stimulation with Con A and interleukin-1 (IL-1), or […]. Thymuses are obtained from mice (e.g., female Balb/C mice) and the thymuses are removed and dissociated into culture media (e.g., RPMI 1640 without serum supplementation). The dissociated thymus tissue and cell suspension is transferred to centrifuge tubes and allowed to settle, washed with HBSS and resuspended in serum-supplemented culture media (e.g., RPMI 1640 with 10% fetal calf serum). Any contaminating red cells are lysed, and viable cells are resuspended and counted. Thymocytes are plated (e.g., 96-well plates at a density of 2×10^5 cells/well) and a stimulating agent, such as Con A, IL-1 (e.g., IL-1α) or IL-2 is added to the well. The cells are incubated for 4 days at 37° C. On the fourth day, the cells are pulsed with tritiated thymidine and cell proliferation determined. Inventive compounds are added at the time of stimulating agent addition.
A third assay measures an ability of an inventive compound to inhibit IL-2-induced proliferation of murine thymocytes. Thymus glands are obtained from 4-6 week old mice and plated as a single cell suspension into flat bottomed wells in RPMI 1640 medium supplemented with 10% fetal calf serum. The inventive compounds are added to appropriate wells and the cells are incubated for 1-2 hrs. Concanavilin A (ConA, 0.25 mg/ml) and […] (20 ng/ml) are added and the plates are incubated for 4 days. Cell proliferation is determined as above.
FIG. 8 compares T cell immune suppression data of thirteen inventive compounds by comparing their IC50 values in a murine thymocyte stimulated by ConA and IL-2 in vitro model.

human lymphocytes [5] = experiment: CD3 blastogenesis assay; format: cell-based; conditions: IL-2 or CD3 blastogenesis; FIG. 13
Experimental: (§3) The CD3 blastogenesis assay is virtually identical to the IL-2 blastogenesis assay described herein, except a human anti-CD3 monoclonal antibody (4 μg/ml, Boehinger Manheimm) is used instead of human IL-2 and the cells are incubated for only three days.
as §3, with “This example illustrates various IC50 values of five inventive compounds as determined by an IL-2 blastogenesis assay described in example 44 above or a CD3 blastogenesis assay. The” for “The”

## C=CCCCCCCCCCn1c(=O)c2[nH]cnc2n(C)c1=O [CT1406, 1-(10-undecenyl)-3-methylxanthine]
Mast cell degranulation; Table 4
  RELEASE-SPONT: 3.26%
  AVERAGE % RELEASE: 19.81%
  inhibition at 50 µM: 59.4%
[1]
  cytotoxicity in mixed lymphocyte assay culture: the most cytotoxic at 100 μM
[1]; cytotoxicity at 100 μM vs MLR IC50
  therapeutic window: significant therapeutic window
[2]
  IC50: 60 µM
[3]
  mixed lymphocyte reaction activity: the most potent activity
[3]; Homo sapiens, PBMC, FIGS. 3 and 4
  IC50: 20 µM
Human lymphocytes [4]
  activity in IL-2 blastogenesis assay: active

## C=CCCCCn1c(=O)c2c(ncn2COC(=O)C(C)(C)C)n(C)c1=O [CT1441, 1-(5-hexenyl)-3-methyl-7-methylpivaloylxanthine]
Mast cell degranulation
  activity in serotonin release assay: appear to be quite potent
Mast cell degranulation; Table 4
  % INHIBITION: 107.89%
  AVERAGE % RELEASE: 15.92%
Mast cell degranulation; Table 4, duplicate wells
  % RELEASE: 15.85% and 16.00%
  INCORP: 22567 and 24238
  RELEASE: 2125 and 2308
  RELEASE X2: 4250 and 4616
  TOTAL: 26817 and 28854
Mast cell degranulation; Table 5
  % INHIBITION: 107.89%
[2]; Table 2, read-out: IC50
  IC50: 300 µM
Murine thymocyte
  T cell immune suppressing activity: potent immune suppressing activity

## CC/C=C\CCCCCn1c(=O)c2[nH]cnc2n(C)c1=O [CT1442, 1-(6-cis-nonenyl)-3-methylxanthine]
Mast cell degranulation
  activity in serotonin release assay: increases the activity
Mast cell degranulation; Table 4
  RELEASE-SPONT: 2.94%
  AVERAGE % RELEASE: 19.49%
  inhibition at 50 µM: 63.4%
[1]
  cytotoxicity in mixed lymphocyte assay culture: little or no cytotoxicity at concentrations well above its effective concentrations
[3]
  mixed lymphocyte reaction activity: the most potent activity
Murine thymocyte
  T cell immune suppressing activity: potent immune suppressing activity
Human lymphocytes [4]
  activity in IL-2 blastogenesis assay: active

## CCCCC/C=C\C/C=C\CCCCCCCCn1c(=O)c2c(ncn2C)n(C)c1=O [CT1524, 1-(cis,cis-9,12-octadecadienyl)-3,7-dimethylxanthine]
Mast cell degranulation
  activity in serotonin release assay: may be showing some toxicity at the concentration of 50 μM
Mast cell degranulation; Table 4
  RELEASE-SPONT: 13.90%
  AVERAGE % RELEASE: 30.46%
  inhibition at 50 µM: -73.3%
[2]
  IC50: 50 µM
[3]
  mixed lymphocyte reaction activity: showed activity within dose ranges achievable in vivo
Murine thymocyte
  T cell immune suppressing activity: potent immune suppressing activity
Human lymphocytes [5]
  immune suppressing activity in blastogenesis assays: significant immune suppressing activity

## C=CCCCCCCCCCn1c(=O)c2c(ncn2C)n(C)c1=O [CT2501, 1-(10-undecenyl)-3,7-dimethylxanthine]
Mast cell degranulation
  activity in serotonin release assay: the two most potent compounds in this group
Mast cell degranulation; Table 4
  RELEASE-SPONT: 2.50%
  AVERAGE % RELEASE: 19.06%
  inhibition at 50 µM: 68.8%
[1]
  cytotoxicity in mixed lymphocyte assay culture: little or no cytotoxicity at concentrations well above its effective concentrations
[2]
  IC50: 200 µM
[3]
  mixed lymphocyte reaction activity: showed activity within dose ranges achievable in vivo
Human lymphocytes [5]
  immune suppressing activity in blastogenesis assays: significant immune suppressing activity

## CC/C=C/CCCCCn1c(=O)c2c(ncn2C)n(C)c1=O [CT2512, 1-(6-trans-nonenyl)-3,7-dimethylxanthine]
Mast cell degranulation
  activity in serotonin release assay: appears to increase the activity; also recorded: increases the activity
Mast cell degranulation; Table 4
  RELEASE-SPONT: 1.65%
  AVERAGE % RELEASE: 18.20%
  inhibition at 50 µM: 79.5%
[2]
  IC50: 50 µM
Human lymphocytes [5]
  immune suppressing activity in blastogenesis assays: significant immune suppressing activity

## Cyclosporin A [reference compound]
Human lymphocytes [4]
  activity in IL-2 blastogenesis assay: does not show significant activity
Human lymphocytes [5]
  immune suppressing activity in blastogenesis assays: generally not very active
